In ChEMBL document CHEMBL5523713, “Development of novel N-aryl-2,4-bithiazole-2-amine-based CYP1B1 degraders for reversing drug resistance” (Eur J Med Chem, 2024):
Peptide text beside a SMILES is read from it. * marks the point of attachment. Cbz = O=C(OCc1ccccc1)*

Experiments:
Assay type in all cases: ADME, cell-based; call rule not given here
[1] = target: T1, Protein cereblon/Cytochrome P450 1B1 (Homo sapiens, UniProt Q16678+Q96SW2); assay: PROTAC activity at CRBN/CYP1B1 in human A549/Taxol cells assessed as degradation by measuring fold change in remaining CYP1B1 level at 1 nM incubated for 24 hrs by Western blotting analysis (reference value: 1); conditions: 0.001 µM
T1 sequence (Q16678 whole entry): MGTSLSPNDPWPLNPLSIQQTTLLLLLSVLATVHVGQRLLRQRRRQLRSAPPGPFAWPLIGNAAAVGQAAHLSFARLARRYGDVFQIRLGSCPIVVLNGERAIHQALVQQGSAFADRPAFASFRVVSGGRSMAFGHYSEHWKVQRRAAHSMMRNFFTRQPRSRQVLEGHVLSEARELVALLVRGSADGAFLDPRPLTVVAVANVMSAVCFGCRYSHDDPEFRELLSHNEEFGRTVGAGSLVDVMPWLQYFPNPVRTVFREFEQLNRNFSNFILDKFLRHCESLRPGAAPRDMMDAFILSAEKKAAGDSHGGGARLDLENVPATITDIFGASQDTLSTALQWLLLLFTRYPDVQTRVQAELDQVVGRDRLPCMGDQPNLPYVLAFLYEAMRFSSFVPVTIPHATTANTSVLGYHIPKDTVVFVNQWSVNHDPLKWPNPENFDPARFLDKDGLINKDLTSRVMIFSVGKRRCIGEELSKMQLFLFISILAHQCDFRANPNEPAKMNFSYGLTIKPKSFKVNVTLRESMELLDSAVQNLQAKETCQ
T1 sequence (Q96SW2 whole entry): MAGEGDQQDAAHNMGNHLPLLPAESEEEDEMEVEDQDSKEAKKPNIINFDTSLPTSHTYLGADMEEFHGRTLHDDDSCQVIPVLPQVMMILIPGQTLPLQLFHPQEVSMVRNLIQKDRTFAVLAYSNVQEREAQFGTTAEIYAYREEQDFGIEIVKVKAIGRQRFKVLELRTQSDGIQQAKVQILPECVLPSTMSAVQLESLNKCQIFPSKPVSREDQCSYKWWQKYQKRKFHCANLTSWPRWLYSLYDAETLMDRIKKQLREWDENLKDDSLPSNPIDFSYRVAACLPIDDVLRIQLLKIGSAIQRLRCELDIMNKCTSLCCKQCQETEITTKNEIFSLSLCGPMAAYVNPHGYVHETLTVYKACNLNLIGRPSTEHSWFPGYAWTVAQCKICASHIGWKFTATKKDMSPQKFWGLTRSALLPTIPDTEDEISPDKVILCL

[2] = target: T1, Protein cereblon/Cytochrome P450 1B1; assay: PROTAC activity at CRBN/CYP1B1 in human A549/Taxol cells assessed as degradation by measuring fold change in remaining CYP1B1 level at 1000 nM incubated for 24 hrs by Western blotting analysis (reference value: 1); conditions: 1 µM
[3] = target: T2, von Hippel-Lindau disease tumor suppressor/Cytochrome P450 1B1 (Homo sapiens, UniProt Q16678+P40337); assay: PROTAC activity at VHL/CYP1B1 in human A549/Taxol cells assessed as degradation by measuring fold change in remaining CYP1B1 level at 1 nM incubated for 24 hrs by Western blotting analysis (reference value: 1); conditions: 0.001 µM
T2 sequence (Q16678 whole entry): as the sequence (Q16678 whole entry) above
T2 sequence (P40337 whole entry): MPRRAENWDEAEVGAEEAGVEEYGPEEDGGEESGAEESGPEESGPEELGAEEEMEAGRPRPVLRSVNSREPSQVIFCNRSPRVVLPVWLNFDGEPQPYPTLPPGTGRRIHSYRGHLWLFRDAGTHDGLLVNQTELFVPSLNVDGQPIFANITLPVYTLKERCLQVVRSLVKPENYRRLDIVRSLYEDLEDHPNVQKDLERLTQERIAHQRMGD

[4] = target: T2, von Hippel-Lindau disease tumor suppressor/Cytochrome P450 1B1; assay: PROTAC activity at VHL/CYP1B1 in human A549/Taxol cells assessed as degradation by measuring fold change in remaining CYP1B1 level at 1000 nM incubated for 24 hrs by Western blotting analysis (reference value: 1); conditions: 1 µM
[5] = target: T2, von Hippel-Lindau disease tumor suppressor/Cytochrome P450 1B1; assay: PROTAC activity at VHL/CYP1B1 in human A549/Taxol cells assessed as reduction in CYP1B1 level at 1 uM incubated for 24 hrs by Western blotting analysis
[6] = target: T2, von Hippel-Lindau disease tumor suppressor/Cytochrome P450 1B1; assay: PROTAC activity at VHL/CYP1B1 in human A549/Taxol cells assessed as reduction in CYP1B1 level at 1 nM incubated for 24 hrs by Western blotting analysis; set-up: scale not given: the % may be the effect or the level left; conditions: 0.001 µM
[7] = target: T2, von Hippel-Lindau disease tumor suppressor/Cytochrome P450 1B1; assay: PROTAC activity at VHL/CYP1B1 in human A549/Taxol cells assessed as reduction in CYP1B1 level at 1000 nM incubated for 24 hrs by Western blotting analysis; set-up: scale not given: the % may be the effect or the level left; conditions: 1 µM

| SMILES | fold change (FC) [1] | fold change (FC) [2] | fold change (FC) [3] | fold change (FC) [4] | also measured |
| --- | --- | --- | --- | --- | --- |
| O=C1CCC(N2Cc3c(NC(=O)CCCCCCCCCCCC(=O)Nc4ccc(-c5csc(-c6csc(Nc7ccc(Cl)cc7)n6)n5)cc4)cccc3C2=O)C(=O)N1 (stereo not drawn) | 0.7 | 1 |  |  |  |
| O=C1CCC(N2C(=O)c3cccc(NC(=O)CN4CCN(CCCCCCCCCCC(=O)Nc5ccc(-c6csc(-c7csc(Nc8ccc(Cl)cc8)n7)n6)cc5)CC4)c3C2=O)C(=O)N1 (stereo not drawn) | 1.2 | 1.5 |  |  |  |
| O=C1CCC(N2Cc3c(NC(=O)CCCCCCCCCC(=O)Nc4ccc(-c5csc(-c6csc(Nc7ccc(Cl)cc7)n6)n5)cc4)cccc3C2=O)C(=O)N1 (stereo not drawn) | 1.1 | 1.3 |  |  |  |
| Cc1ncsc1-c1ccc([C@H](C)NC(=O)[C@@H]2C[C@@H](O)CN2C(=O)[C@@H](NC(=O)Cn2cc(CCCCCOc3ccccc3-c3csc(-c4csc(Nc5ccc(Cl)cc5)n4)n3)nn2)C(C)(C)C)cc1 |  |  | 1.1 | 0.9 |  |
| O=C1CCC(N2C(=O)c3cccc(NC(=O)CN4CCN(CCCCCCCCCCCC(=O)Nc5ccc(-c6csc(-c7csc(Nc8ccc(Cl)cc8)n7)n6)cc5)CC4)c3C2=O)C(=O)N1 (stereo not drawn) | 1.5 | 1.1 |  |  |  |
| O=C1CCC(N2Cc3c(NC(=O)CCCCCC(=O)Nc4ccc(-c5csc(-c6csc(Nc7ccc(Cl)cc7)n6)n5)cc4)cccc3C2=O)C(=O)N1 (stereo not drawn) | 1.1 | 1 |  |  |  |
| O=C1CCC(N2C(=O)c3cccc(NC(=O)CN4CCN(CCCCCCCC(=O)Nc5ccc(-c6csc(-c7csc(Nc8ccc(Cl)cc8)n7)n6)cc5)CC4)c3C2=O)C(=O)N1 (stereo not drawn) | 0.7 | 1 |  |  |  |
| Cc1ncsc1-c1ccc([C@H](C)NC(=O)[C@@H]2C[C@@H](O)CN2C(=O)[C@@H](NC(=O)Cn2cc(COCCOCCOc3ccccc3-c3csc(-c4csc(Nc5ccc(Cl)cc5)n4)n3)nn2)C(C)(C)C)cc1 |  |  | 1.1 | 1.3 |  |
| O=C1CCC(N2Cc3c(NC(=O)CCCCCCCC(=O)Nc4ccc(-c5csc(-c6csc(Nc7ccc(Cl)cc7)n6)n5)cc4)cccc3C2=O)C(=O)N1 (stereo not drawn) | 0.8 | 1 |  |  |  |
| Cc1ncsc1-c1ccc([C@H](C)NC(=O)[C@@H]2C[C@@H](O)CN2C(=O)[C@@H](NC(=O)CCCCCCCCCCOc2ccccc2-c2csc(-c3csc(Nc4ccc(Cl)cc4)n3)n2)C(C)(C)C)cc1 |  |  | 1.7 | 1.8 |  |
| Cc1ncsc1-c1ccc([C@H](C)NC(=O)[C@@H]2C[C@@H](O)CN2C(=O)[C@@H](NC(=O)CCCCCOc2ccccc2-c2csc(-c3csc(Nc4ccc(Cl)cc4)n3)n2)C(C)(C)C)cc1 |  |  | 0.5 | 1.5 |  |
| Cc1ncsc1-c1ccc([C@H](C)NC(=O)[C@@H]2C[C@@H](O)CN2C(=O)[C@@H](NC(=O)CCCCCCCCCCCOc2ccccc2-c2csc(-c3csc(Nc4ccc(Cl)cc4)n3)n2)C(C)(C)C)cc1 |  |  | 0.9 | 2 |  |
| O=C1CCC(N2C(=O)c3cccc(NC(=O)CN4CCN(CCCCCCCCCC(=O)Nc5ccc(-c6csc(-c7csc(Nc8ccc(Cl)cc8)n7)n6)cc5)CC4)c3C2=O)C(=O)N1 (stereo not drawn) | 0.8 | 1.2 |  |  |  |
| O=C1CCC(N2C(=O)c3cccc(NC(=O)CN4CCN(CCCCCCC(=O)Nc5ccc(-c6csc(-c7csc(Nc8ccc(Cl)cc8)n7)n6)cc5)CC4)c3C2=O)C(=O)N1 (stereo not drawn) | 0.8 | 0.9 |  |  |  |
| O=C1CCC(N2C(=O)c3cccc(NC(=O)CN4CCN(CCCCCCCCC(=O)Nc5ccc(-c6csc(-c7csc(Nc8ccc(Cl)cc8)n7)n6)cc5)CC4)c3C2=O)C(=O)N1 (stereo not drawn) | 1 | 1.6 |  |  |  |
| O=C1CCC(N2C(=O)c3cccc(NC(=O)CN4CCN(CCCCCC(=O)Nc5ccc(-c6csc(-c7csc(Nc8ccc(Cl)cc8)n7)n6)cc5)CC4)c3C2=O)C(=O)N1 (stereo not drawn) | 1 | 1.2 |  |  |  |
| CC(C)C[C@@H](C=O)NC(=O)[C@H](CC(C)C)NC(=O)[C@H](CC(C)C)NC(=O)OCc1ccccc1 [MG-132] (Cbz-Leu-Leu-Leu-aldehyde) |  |  |  |  | Activity [5]: Not Active |
| Cc1ncsc1-c1ccc([C@H](C)NC(=O)[C@@H]2C[C@@H](O)CN2C(=O)[C@@H](NC(=O)CCCCCCCCCOc2ccccc2-c2csc(-c3csc(Nc4ccc(Cl)cc4)n3)n2)C(C)(C)C)cc1 |  |  | 1.5 | 1.5 |  |
| Cc1ncsc1-c1ccc([C@H](C)NC(=O)[C@@H]2C[C@@H](O)CN2C(=O)[C@@H](NC(=O)CCCCCCCCOc2ccccc2-c2csc(-c3csc(Nc4ccc(Cl)cc4)n3)n2)C(C)(C)C)cc1 |  |  | 0.7 | 0.6 |  |
| O=C1CCC(N2Cc3c(NC(=O)CCCCCCCCCCCCCC(=O)Nc4ccc(-c5csc(-c6csc(Nc7ccc(Cl)cc7)n6)n5)cc4)cccc3C2=O)C(=O)N1 (stereo not drawn) | 0.9 | 1 |  |  |  |
| Cc1ncsc1-c1ccc([C@H](C)NC(=O)[C@@H]2C[C@@H](O)CN2C(=O)[C@@H](NC(=O)CCCCCCCOc2ccccc2-c2csc(-c3csc(Nc4ccc(Cl)cc4)n3)n2)C(C)(C)C)cc1 |  |  | 0.4 | 0.2 | Activity [6]: 60%; Activity [7]: > 70% |
